Assay results reported in ChEMBL document CHEMBL4483862, “Open-source discovery of chemical leads for next-generation chemoprotective antimalarials” (2018).

Test system: Plasmodium berghei
Assay: Luciferase/luciferin-expressing antifolate-resistant parasites were used to infect a culture of HepG2 cells that were pre-incubated with compounds. Infected hepatocytes emit light due to the luciferase reaction. Assay results are presented as the percent inhibition of light emission compared to control. […]
Type: functional
Conditions: sporozoite; for IC90: read-out: LUCIFERASE INFECTION ASSAY - IC90

Structure (SMILES)	IC90 [µM]	further results
COc1ccc(-c2nc3c(c(=O)[nH]c(=O)n3Cc3ccccc3)n2Cc2ccccc2)cc1	> 10	IC50 (HEPG2TOX_HILL_SLOPE 7.19, HEPG2TOX_R_SQUARED 0.823, PBLUC_HILL_SLOPE 10.3, PBLUC_R_SQUARED 0.181, read-out: LUCIFERASE INFECTION ASSAY - IC50): 8.99 µM
CC(C)c1ccc(NC2=NN=C(c3cccs3)CS2)cc1	> 10	IC50 (HEPG2TOX_HILL_SLOPE 7.09, HEPG2TOX_R_SQUARED 0.364, read-out: LUCIFERASE INFECTION ASSAY - IC50): > 10 µM
COc1cc(-c2cnc3cnc(-c4cnn(C)c4)cn23)ccc1O	3.64	IC50 (HEPG2TOX_HILL_SLOPE 7.18, HEPG2TOX_R_SQUARED 0.736, PBLUC_HILL_SLOPE 4.69, PBLUC_R_SQUARED 0.709, read-out: LUCIFERASE INFECTION ASSAY - IC50): 2.28 µM
CC(=O)c1cccc(-c2cnc3cnc(-c4cnn(C)c4)cn23)c1	> 10.4	IC50 (HEPG2TOX_HILL_SLOPE 7.11, HEPG2TOX_R_SQUARED 0.363, PBLUC_HILL_SLOPE 4.07, PBLUC_R_SQUARED 0.503, read-out: LUCIFERASE INFECTION ASSAY - IC50): 9.68 µM
Cc1ccc2c(c1)/C(=N/Nc1nc3ccccc3s1)C(=O)N2	4.93	IC50 (HEPG2TOX_HILL_SLOPE 7.15, HEPG2TOX_R_SQUARED 0.815, PBLUC_HILL_SLOPE 8.39, PBLUC_R_SQUARED 0.507, read-out: LUCIFERASE INFECTION ASSAY - IC50): 3.79 µM
O=C1C=C/C(=N\Nc2ccc(F)cc2)c2cccnc21	> 10	IC50 (HEPG2TOX_HILL_SLOPE 7.02, HEPG2TOX_R_SQUARED 0.243, read-out: LUCIFERASE INFECTION ASSAY - IC50): > 10 µM
CCOC(=O)/C=C/C(=O)OCC(=O)c1ccc(C2CCCCC2)cc1	> 10	IC50 (HEPG2TOX_HILL_SLOPE 7.18, HEPG2TOX_R_SQUARED 0.791, read-out: LUCIFERASE INFECTION ASSAY - IC50): > 10 µM
CN(C)c1cccc(-c2cnc3cnc(-c4cccc(NS(C)(=O)=O)c4)cn23)c1	> 8.1	IC50 (HEPG2TOX_HILL_SLOPE 7.18, HEPG2TOX_R_SQUARED 0.638, PBLUC_HILL_SLOPE 3.24, PBLUC_R_SQUARED 0.204, read-out: LUCIFERASE INFECTION ASSAY - IC50): 4.82 µM
Cc1cc(C)cc(Nc2ncnc3ccsc23)c1	> 10	IC50 (HEPG2TOX_HILL_SLOPE 6.98, HEPG2TOX_R_SQUARED 0.366, PBLUC_HILL_SLOPE 11.4, PBLUC_R_SQUARED 0.0607, read-out: LUCIFERASE INFECTION ASSAY - IC50): > 10 µM
Cc1ccc(C(=O)c2sc(Nc3ccc(F)cc3)c(-c3nnc(N4CCOCC4)n3-c3ccccc3)c2N)cc1C	> 10	IC50 (HEPG2TOX_HILL_SLOPE 7.05, HEPG2TOX_R_SQUARED 0.741, PBLUC_HILL_SLOPE 9.57, PBLUC_R_SQUARED 0.198, read-out: LUCIFERASE INFECTION ASSAY - IC50): 8.84 µM
CCN(CC)Cc1nc(Oc2ccc(C)cc2OC)c2c(C)c(C)sc2n1	> 10	IC50 (HEPG2TOX_HILL_SLOPE 7.2, HEPG2TOX_R_SQUARED 0.121, read-out: LUCIFERASE INFECTION ASSAY - IC50): > 10 µM
Cn1cc(CN2CC=C(c3ccccc3)CC2)c2ccccc21	> 10	IC50 (HEPG2TOX_HILL_SLOPE 7.11, HEPG2TOX_R_SQUARED 0.283, PBLUC_HILL_SLOPE 12.5, PBLUC_R_SQUARED 0.246, read-out: LUCIFERASE INFECTION ASSAY - IC50): 9.52 µM
COC(=O)c1cnc(Sc2nnc(C(F)(F)F)n2C)c([N+](=O)[O-])c1	> 9.08	IC50 (HEPG2TOX_HILL_SLOPE 7.14, HEPG2TOX_R_SQUARED 0.788, read-out: LUCIFERASE INFECTION ASSAY - IC50): > 9.08 µM
Cc1ccccc1NC(=O)Nc1nc(C(N)COCc2ccccc2)cs1 (stereo unspecified)	> 8.63	IC50 (HEPG2TOX_HILL_SLOPE 7.21, HEPG2TOX_R_SQUARED 0.623, PBLUC_HILL_SLOPE 21.4, PBLUC_R_SQUARED 0.0439, read-out: LUCIFERASE INFECTION ASSAY - IC50): 7.8 µM
CCn1c(-c2ccccc2)c(C(=O)COc2ccc(Cl)c(C)c2)c2ccccc21	> 10	IC50 (HEPG2TOX_HILL_SLOPE 7.06, HEPG2TOX_R_SQUARED 0.488, PBLUC_HILL_SLOPE 0.342, PBLUC_R_SQUARED 0.631, read-out: LUCIFERASE INFECTION ASSAY - IC50): 0.357 µM
O=C(c1cccnc1)N1CCc2nc(NCc3cccc(Oc4ccccc4)c3)ncc2C1	> 7.54	IC50 (HEPG2TOX_HILL_SLOPE 6.99, HEPG2TOX_R_SQUARED 0.608, read-out: LUCIFERASE INFECTION ASSAY - IC50): > 7.54 µM
CC(=O)c1cccc(-c2cnc3ccc(-c4cccc(OC(F)(F)F)c4)nn23)c1	> 10	IC50 (HEPG2TOX_HILL_SLOPE 7.2, HEPG2TOX_R_SQUARED 0.65, PBLUC_HILL_SLOPE 0.974, PBLUC_R_SQUARED 0.617, read-out: LUCIFERASE INFECTION ASSAY - IC50): 1.38 µM

Structure (SMILES)	IC90 [µM]	further results
CCc1ccc(NC(=O)c2cc(OC)c(OC)c(OC)c2)cc1[N+](=O)[O-]	> 10	IC50 (HEPG2TOX_HILL_SLOPE 7.15, HEPG2TOX_R_SQUARED 0.493, PBLUC_HILL_SLOPE 1.31, PBLUC_R_SQUARED 0.625, read-out: LUCIFERASE INFECTION ASSAY - IC50): 6.01 µM
COc1ccc(Cn2c(C)nc3c(cnn3-c3ccc(Cl)cc3)c2=O)cc1	> 8.67	IC50 (HEPG2TOX_HILL_SLOPE 7.21, HEPG2TOX_R_SQUARED 0.304, PBLUC_HILL_SLOPE 6.35, PBLUC_R_SQUARED 0.427, read-out: LUCIFERASE INFECTION ASSAY - IC50): 7.48 µM
Oc1cccc(-c2cnc3cnc(-c4ccccc4)cn23)c1	> 11.5	IC50 (HEPG2TOX_HILL_SLOPE 7.12, HEPG2TOX_R_SQUARED 0.466, PBLUC_HILL_SLOPE 2.24, PBLUC_R_SQUARED 0.572, read-out: LUCIFERASE INFECTION ASSAY - IC50): 7.48 µM
COc1cc(-c2cnc3cnc(-c4cccc(NS(C)(=O)=O)c4)cn23)cc(OC)c1OC	6.6	IC50 (HEPG2TOX_HILL_SLOPE 7.03, HEPG2TOX_R_SQUARED 0.532, PBLUC_HILL_SLOPE 3.63, PBLUC_R_SQUARED 0.378, read-out: LUCIFERASE INFECTION ASSAY - IC50): 3.61 µM
CCCc1cc(=O)n2nc(COc3ccccc3)c(-c3ccccc3)c2[nH]1	5.37	IC50 (HEPG2TOX_HILL_SLOPE 7.2, HEPG2TOX_R_SQUARED 0.777, PBLUC_HILL_SLOPE 5.33, PBLUC_R_SQUARED 0.154, read-out: LUCIFERASE INFECTION ASSAY - IC50): 3.56 µM
CS(=O)(=O)Nc1cccc(-c2cn3c(-c4cccc(O)c4)cnc3cn2)c1	8.16	IC50 (HEPG2TOX_HILL_SLOPE 7.05, HEPG2TOX_R_SQUARED 0.671, PBLUC_HILL_SLOPE 23.9, PBLUC_R_SQUARED 0.257, read-out: LUCIFERASE INFECTION ASSAY - IC50): 7.45 µM
Cc1nc(C(=N)NOC(=O)c2c(-c3c(Cl)cccc3Cl)noc2C)cs1	1.24	IC50 (HEPG2TOX_HILL_SLOPE 7.11, HEPG2TOX_R_SQUARED 0.0768, PBLUC_HILL_SLOPE 8.1, PBLUC_R_SQUARED 0.284, read-out: LUCIFERASE INFECTION ASSAY - IC50): 0.945 µM
N=C(NOC(=O)Nc1cccc(C(F)(F)F)c1)c1ccc(Oc2c(Cl)cncc2Cl)cc1	> 6.8	IC50 (HEPG2TOX_HILL_SLOPE 7.08, HEPG2TOX_R_SQUARED 0.63, PBLUC_HILL_SLOPE 1.44, PBLUC_R_SQUARED 0.448, read-out: LUCIFERASE INFECTION ASSAY - IC50): 4.93 µM
Cn1cc(Br)c(-c2cccc(NC(=O)Nc3ccc(Cl)cc3)c2)n1	> 8.13	IC50 (HEPG2TOX_HILL_SLOPE 7.05, HEPG2TOX_R_SQUARED 0.913, PBLUC_HILL_SLOPE 7.26, PBLUC_R_SQUARED 0.779, read-out: LUCIFERASE INFECTION ASSAY - IC50): > 8.13 µM
CN(C)c1ccccc1-c1cn2c(-c3ccc4ncccc4c3)cnc2cn1	> 9.03	IC50 (HEPG2TOX_HILL_SLOPE 7.2, HEPG2TOX_R_SQUARED 0.832, read-out: LUCIFERASE INFECTION ASSAY - IC50): > 9.03 µM
CC(=O)NCc1ccc(-c2csc(NC(=O)c3cc4cnn(C(C)C)c4nc3C)n2)s1	> 10	IC50 (HEPG2TOX_HILL_SLOPE 7.15, HEPG2TOX_R_SQUARED 0.462, PBLUC_HILL_SLOPE 31.4, PBLUC_R_SQUARED 0.13, read-out: LUCIFERASE INFECTION ASSAY - IC50): 9.38 µM
COc1ccc(-c2cnc3ccc(Cc4ccc(F)cc4)nn23)cc1OC	6.11	IC50 (HEPG2TOX_HILL_SLOPE 7.18, HEPG2TOX_R_SQUARED 0.189, PBLUC_HILL_SLOPE 3.8, PBLUC_R_SQUARED 0.0747, read-out: LUCIFERASE INFECTION ASSAY - IC50): 3.43 µM
Cc1[nH]nc2ccnc(-c3cccc(Cl)c3)c12	> 10	IC50 (HEPG2TOX_HILL_SLOPE 7.21, HEPG2TOX_R_SQUARED 0.311, read-out: LUCIFERASE INFECTION ASSAY - IC50): > 10 µM
NC(=O)c1cc(NC(=O)c2cccs2)ccc1N1CCCCC1	4.83	IC50 (HEPG2TOX_HILL_SLOPE 7.03, HEPG2TOX_R_SQUARED 0.757, PBLUC_HILL_SLOPE 7.92, PBLUC_R_SQUARED 0.39, read-out: LUCIFERASE INFECTION ASSAY - IC50): 3.66 µM
O=C(Nc1ccc(SC(F)(F)F)cc1)N1CCN(c2nc(-c3ccccc3)ns2)CC1	> 7.09	IC50 (HEPG2TOX_HILL_SLOPE 7.08, HEPG2TOX_R_SQUARED 0.48, PBLUC_HILL_SLOPE 1.8, PBLUC_R_SQUARED 0.469, read-out: LUCIFERASE INFECTION ASSAY - IC50): 3.31 µM
O=C1/C(=C/c2ccc(F)cc2)CCC/C1=C\c1ccc(F)cc1	> 10.6	IC50 (HEPG2TOX_HILL_SLOPE 7.08, HEPG2TOX_R_SQUARED 0.955, read-out: LUCIFERASE INFECTION ASSAY - IC50): > 10.6 µM
